Results from patent EP4755889A1, “COMPOUND FOR DETECTING AMYLOID-BETA OLIGOMER AND METHOD FOR DIAGNOSING DEGENERATIVE BRAIN DISEASE USING SAME” (Amyloid Solution Inc., priority 2024, dated 2025).

Key:
Aβ1-42 oligomers = biological target: T1, Aβ1-42 oligomers (Homo sapiens, UniProt P05067); assay: Selectivity for Aβ variant oligomers (fluorescence); format: binding; settings: oligomeric Aβ variants 10 µM each; IK15j (10 µM)
T1 construct: Aβ1-42 peptide was aggregated at 37 °C for 8 hours
Experimental: Accordingly, Aβ variant oligomers were prepared and incubated with IK15j to investigate the selectivity of the compound for Aβ variants. Briefly, samples of oligomeric Aβ1-40, Aβ1-42, and AβpE3-42 (10 µM each) were each treated with IK15j (10 µM), and the fluorescence intensity of each Aβ variant sample was measured.

Aβn-(n+5) (n = 1 to 37) = assay: Mapping Amyloid Plate (MAP): binding to immobilized Aβ1-42 hexamer fragments; settings: MAP treated with IK15j for 24 hours
Experimental: A Mapping Amyloid Plate (MAP) for investigating the target site of the compound of the present disclosure on Aβ1-42 fragments or Aβ1-42 oligomers was prepared with reference to Korean Patent Application No. 10-2023-0133625, which is incorporated herein by reference in its entirety.
Briefly, to remove the bovine serum albumin coating from the plate, each well of the plate was washed three times with 200 µL of wash buffer (0.1 M sodium phosphate, 0.15 M sodium chloride, 0.05 % Tween-20, pH 7.2). Full-length and fragmented peptides of Aβ1-42 were individually dissolved in DMSO to prepare […] stock solutions, which were then diluted with binding buffer (0.1 M sodium phosphate, 0.15 M sodium chloride, 10 mM EDTA, pH 7.2) to prepare 50 µg/mL peptide solutions (5 % DMSO). 100 µL of the peptide solution was added to each well and allowed to react with the maleimide at room temperature overnight. After peptide immobilization, unbound peptides were removed by washing three times with 200 µL of wash buffer. […]
Two conditions were prepared to confirm whether the compound of the present disclosure targets the structure or the sequence of Aβ oligomers. […] The fluorescence intensity of both plates was measured using a microplate reader (λex = 285 nm/λem = 475 nm). […]

T1 sequence (P05067 672-713): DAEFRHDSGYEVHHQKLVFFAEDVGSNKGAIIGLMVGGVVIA

For `Cc1ccc2c(c1)c(-c1ccccc1)cn1c(C)cc(C#N)c21` [IK15j, 3,8-dimethyl-6-phenylpyrrolo[2,1-a]isoquinoline-1-carbonitrile], the “fluorescence intensity in the presence of Aβ1-42 oligomers compared to Aβ1-40 or AβpE3-42 oligomers” value (Aβ1-42 oligomers) was “increased markedly”, the “signal in Aβ fragments compared to Aβ1-42” value (Aβn-(n+5) (n = 1 to 37)) was “increase in IK15j signal was observed in 10 Aβ fragments (Aβ14-19 to Aβ23-28)” and the “signal across all Aβ fragments” value (Aβn-(n+5) (n = 1 to 37); heatmap) was “relatively low across all fragments”.
